Values quoted from earlier work, collected in US6821979B2, “Synergistic enhancement of cognitive ability” (Blanchette Rockefeller Neurosciences Institute, priority 2002, dated 2004).
One block for each compound: values may come before it.

Tests used:
[1] = system: carbonic anhydrase; settings: rats; CNS administration
[2] = theophylline alone; literature studies
[3] = system: carbonic anhydrase; settings: single dose; electroencephalogram during rapid-eye-movement sleep
[4] = system: carbonic anhydrase; settings: conscious animals; CNS administration; other sensory and/or locomotor behaviors not affected

Compound: c1c[nH]cn1 [imidazole]
ability to learn a water-maze task and to recall the maze from memory [1]: significantly enhances

Compound: Cn1c(=O)c2[nH]cnc2n(C)c1=O [theophylline]
effect on cognition [2]: insignificant

Compound: N[C@@H](Cc1ccccc1)C(=O)O [phenylalanine]
ability to learn a water-maze task and to recall the maze from memory [1]: significantly enhances

reduction of magnitudes of θ-wave frequency activity [3]: 50%
Compound: CC(=O)Nc1nnc(S(N)(=O)=O)s1 [acetazolamide]
spatial learning [4]: impairs spatial learning
